Laboratory results: US20260132132A1, “3A,4,5,6-TETRAHYDRO-1 H-PYRAZOLO[3,4-C]PYRIDIN-7(7AH)-ONE DERIVATIVES AS FACTOR XIIA INHIBITORS” (KALVISTA PHARMACEUTICALS LIMITED, priority 2022, published 2026)

Legend:
Type in all cases: biochemical
[1] = biological target: T1, Human Factor XIIa (hFXIIa) (Homo sapiens, UniProt P00748); experiment: Determination of Human Factor XIIa (hFXIIa) inhibition, fluorogenic substrate IC50 assay; conditions: fluorogenic substrate H-DPro-Phe-Arg-AFC at Km, 25° C., read-out: Human FXIIa IC50
T1 construct: purchased Enzyme Research Laboratories
T1 sequence (P00748 373-615 limits assumed): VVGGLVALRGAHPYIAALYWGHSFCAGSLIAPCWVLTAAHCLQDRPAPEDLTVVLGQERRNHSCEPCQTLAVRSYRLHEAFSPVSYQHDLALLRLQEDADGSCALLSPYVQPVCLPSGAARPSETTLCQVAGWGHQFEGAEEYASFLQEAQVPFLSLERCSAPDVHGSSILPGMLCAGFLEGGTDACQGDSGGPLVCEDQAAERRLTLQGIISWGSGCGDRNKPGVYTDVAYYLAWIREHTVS
T1 sequence (P00748 20-372 partner limits assumed): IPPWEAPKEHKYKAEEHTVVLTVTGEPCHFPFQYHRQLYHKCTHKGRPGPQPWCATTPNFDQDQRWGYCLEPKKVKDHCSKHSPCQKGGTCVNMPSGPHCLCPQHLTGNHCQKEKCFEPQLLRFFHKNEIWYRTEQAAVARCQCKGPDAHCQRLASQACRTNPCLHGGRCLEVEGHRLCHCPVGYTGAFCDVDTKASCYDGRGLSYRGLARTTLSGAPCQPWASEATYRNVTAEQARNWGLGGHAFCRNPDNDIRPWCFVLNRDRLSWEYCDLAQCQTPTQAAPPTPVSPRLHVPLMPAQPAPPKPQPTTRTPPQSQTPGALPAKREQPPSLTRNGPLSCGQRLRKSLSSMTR
Procedure: Determination of Human Factor XIIa (hFXIIa) inhibition
The Km for the cleavage of the substrate by hFXIIa was determined by standard transformation of the Michaelis-Menten equation, with subsequent inhibition assays performed at substrate Km concentration.

[2] = biological target: Thrombin (Homo sapiens, UniProt P00734); experiment: Related protease inhibition: Thrombin, fluorogenic substrate; conditions: fluorogenic substrate at Km, 25° C.; H1-H3 = % activity at 40 μM; read-out: IC50 (human thrombin) nM
Procedure: (§1) Human serine protease enzyme Plasma Kallikrein, KLK1, FXa, Plasmin, Thrombin and Trypsin were assayed for enzymatic activity using an appropriate fluorogenic substrate at Km concentration, FXIa at fixed substrate concentration of 100 μM and various concentrations of the test compound.

[3] = biological target: FXa (Homo sapiens, UniProt P00742); experiment: Related protease inhibition: FXa, fluorogenic substrate; conditions: fluorogenic substrate at Km, 25° C.; H1-H3 = % activity at 40 μM; read-out: IC50 (human FXa) nM
FXa, sequence (P00742 235-488 limits assumed): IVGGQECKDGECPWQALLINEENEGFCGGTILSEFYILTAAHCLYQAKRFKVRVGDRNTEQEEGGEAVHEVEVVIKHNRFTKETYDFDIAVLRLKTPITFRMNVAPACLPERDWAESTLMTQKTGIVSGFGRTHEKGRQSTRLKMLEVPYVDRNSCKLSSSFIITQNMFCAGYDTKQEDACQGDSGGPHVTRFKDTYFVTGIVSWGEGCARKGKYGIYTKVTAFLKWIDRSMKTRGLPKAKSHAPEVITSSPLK
FXa, sequence (P00742 41-179 partner limits assumed): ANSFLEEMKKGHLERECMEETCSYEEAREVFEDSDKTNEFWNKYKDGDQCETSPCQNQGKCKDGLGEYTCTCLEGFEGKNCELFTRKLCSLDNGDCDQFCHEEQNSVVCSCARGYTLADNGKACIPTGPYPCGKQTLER
Procedure: as §1

SMILES | IC50 [1] [µM] | activity at 40 µM [2] [%] | activity at 40 µM [3] [%]
CN1CCc2ccc(N3CCc4c(C(=O)N[C@H](CO)C5CC5)nn(-c5cccc(Cl)c5)c4C3=O)cc2C1=O [Example 1406, (S)-1-(3-chlorophenyl)-N-(1-cyclopropyl-2-hydroxyethyl)-6-(2-methyl-1-oxo-1,2,3,4-tetrahydroisoquinolin-7-yl)-7-oxo-4,5,6,7-tetrahydro-1H-pyrazolo[3,4-c]pyridine-3-carboxamide] | 0.1 to 0.3 | 20 to 80 | > 80
CCNC(=O)c1nn(-c2cccc(Cl)c2)c2c1CCN(c1cccc(N3CCN(C(C)C)C3=O)c1)C2=O [Example 1409, 1-(3-chlorophenyl)-N-ethyl-6-(3-(3-isopropyl-2-oxoimidazolidin-1-yl)phenyl)-7-oxo-4,5,6,7-tetrahydro-1H-pyrazolo[3,4-c]pyridine-3-carboxamide] | 3 to 10 | > 80 | > 80
COCCNC(=O)c1nn(-c2cccc(Cl)c2)c2c1CCN(c1ccc3c(c1)C(=O)N(C)CC3)C2=O [Example 1410, 1-(3-chlorophenyl)-N-(2-methoxyethyl)-6-(2-methyl-1-oxo-1,2,3,4-tetrahydroisoquinolin-7-yl)-7-oxo-4,5,6,7-tetrahydro-1H-pyrazolo[3,4-c]pyridine-3-carboxamide] | 0.3 to 1 | < 20 | 20 to 80
CN1CCc2ccc(N3CCc4c(C(=O)N[C@@H]5COC[C@H]5O)nn(-c5cccc(Cl)c5)c4C3=O)cc2C1=O [Example 1411, 1-(3-chlorophenyl)-N-((3R,4S)-4-hydroxytetrahydrofuran-3-yl)-6-(2-methyl-1-oxo-1,2,3,4-tetrahydroisoquinolin-7-yl)-7-oxo-4,5,6,7-tetrahydro-1H-pyrazolo[3,4-c]pyridine-3-carboxamide] | 0.3 to 1 | > 80 | > 80
CN1CCc2ccc(N3CCc4c(C(=O)N[C@@H]5COC[C@@H]5O)nn(-c5cccc(Cl)c5)c4C3=O)cc2C1=O [Example 1412, 1-(3-chlorophenyl)-N-((3R,4R)-4-hydroxytetrahydrofuran-3-yl)-6-(2-methyl-1-oxo-1,2,3,4-tetrahydroisoquinolin-7-yl)-7-oxo-4,5,6,7-tetrahydro-1H-pyrazolo[3,4-c]pyridine-3-carboxamide] | 0.3 to 1 | 20 to 80 | 20 to 80
CCNC(=O)c1nn(-c2cccc(Cl)c2)c2c1CCN(c1cccc(N3C(=O)C[C@H]4CCC[C@H]43)c1)C2=O [Example 1413, 1-(3-chlorophenyl)-N-ethyl-7-oxo-6-(3-((3aR,6aR)-2-oxohexahydrocyclopenta[b]pyrrol-1(2H)-yl)phenyl)-4,5,6,7-tetrahydro-1H-pyrazolo[3,4-c]pyridine-3-carboxamide] | 10 to 40 | 20 to 80 | > 80
Cc1ccc(CNC(=O)c2nn(-c3cccc(Cl)c3)c3c2CCN(c2ccc4c(c2)C(=O)N(CCO)CC4)C3=O)cn1 [Example 1414, 1-(3-chlorophenyl)-6-(2-(2-hydroxyethyl)-1-oxo-1,2,3,4-tetrahydroisoquinolin-7-yl)-N-((6-methylpyridin-3-yl)methyl)-7-oxo-4,5,6,7-tetrahydro-1H-pyrazolo[3,4-c]pyridine-3-carboxamide] | 0.1 to 0.3 | 20 to 80 | 20 to 80
CN1CCc2ccc(N3CCc4c(C(=O)N[C@H]5COC[C@@H]5O)nn(-c5cccc(Cl)c5)c4C3=O)cc2C1=O [Example 1415, 1-(3-chlorophenyl)-N-((3S,4R)-4-hydroxytetrahydrofuran-3-yl)-6-(2-methyl-1-oxo-1,2,3,4-tetrahydroisoquinolin-7-yl)-7-oxo-4,5,6,7-tetrahydro-1H-pyrazolo[3,4-c]pyridine-3-carboxamide] | 0.1 to 0.3 | > 80 | > 80
CN1CCc2ccc(N3CCc4c(C(=O)N[C@H]5COC[C@H]5O)nn(-c5cccc(Cl)c5)c4C3=O)cc2C1=O [Example 1416, 1-(3-chlorophenyl)-N-((3S,4S)-4-hydroxytetrahydrofuran-3-yl)-6-(2-methyl-1-oxo-1,2,3,4-tetrahydroisoquinolin-7-yl)-7-oxo-4,5,6,7-tetrahydro-1H-pyrazolo[3,4-c]pyridine-3-carboxamide] | 0.1 to 0.3 | 20 to 80 | 20 to 80
CN1CCc2ccc(N3CCc4c(C(=O)NCCCO)nn(-c5cccc(Cl)c5)c4C3=O)cc2C1=O [Example 1417, 1-(3-chlorophenyl)-N-(3-hydroxypropyl)-6-(2-methyl-1-oxo-1,2,3,4-tetrahydroisoquinolin-7-yl)-7-oxo-4,5,6,7-tetrahydro-1H-pyrazolo[3,4-c]pyridine-3-carboxamide] | 0.3 to 1 | 20 to 80 | 20 to 80
CCNC(=O)c1nn(-c2cccc(Cl)c2)c2c1CCN(c1cc3c(cn1)OCCN(C)C3=O)C2=O [Example 1418, 1-(3-chlorophenyl)-N-ethyl-6-(4-methyl-5-oxo-2,3,4,5-tetrahydropyrido[4,3-f][1,4]oxazepin-7-yl)-7-oxo-4,5,6,7-tetrahydro-1H-pyrazolo[3,4-c]pyridine-3-carboxamide] | 0.3 to 1 | > 80 | 20 to 80
CCNC(=O)c1nn(-c2cccc(Cl)c2)c2c1CCN(c1ccc(OC)c(CN3CCCCC3)c1)C2=O [Example 1419, 1-(3-chlorophenyl)-N-ethyl-6-(4-methoxy-3-(piperidin-1-ylmethyl)phenyl)-7-oxo-4,5,6,7-tetrahydro-1H-pyrazolo[3,4-c]pyridine-3-carboxamide] | 1 to 3 | 20 to 80 | 20 to 80
CCNC(=O)c1nn(-c2cccc(Cl)c2)c2c1CCN(c1cccc(N3CCN(C)CC3=O)c1)C2=O [Example 1420, 1-(3-chlorophenyl)-N-ethyl-6-(3-(4-methyl-2-oxopiperazin-1-yl)phenyl)-7-oxo-4,5,6,7-tetrahydro-1H-pyrazolo[3,4-c]pyridine-3-carboxamide] | 3 to 10 | > 80 | > 80
CN1CCc2ccc(N3CCc4c(C(=O)NCC5(O)CC5)nn(-c5cccc(Cl)c5)c4C3=O)cc2C1=O [Example 1421, 1-(3-chlorophenyl)-N-((1-hydroxycyclopropyl)methyl)-6-(2-methyl-1-oxo-1,2,3,4-tetrahydroisoquinolin-7-yl)-7-oxo-4,5,6,7-tetrahydro-1H-pyrazolo[3,4-c]pyridine-3-carboxamide] | 0.3 to 1 | > 80 | > 80
CCNC(=O)c1nn(-c2cccc(Cl)c2)c2c1CCN(c1ccc3c(c1)NCCO3)C2=O [Example 1422, 1-(3-chlorophenyl)-6-(3,4-dihydro-2H-benzo[b][1,4]oxazin-6-yl)-N-ethyl-7-oxo-4,5,6,7-tetrahydro-1H-pyrazolo[3,4-c]pyridine-3-carboxamide] | 10 to 40 | 20 to 80 | 20 to 80
CCNC(=O)c1nn(-c2cccc(Cl)c2)c2c1CCN(c1cccc(N3CCN(C)CC3)c1)C2=O [Example 1423, 1-(3-Chlorophenyl)-N-ethyl-6-(3-(4-methylpiperazin-1-yl)phenyl)-7-oxo-4,5,6,7-tetrahydro-1H-pyrazolo[3,4-c]pyridine-3-carboxamide] | 1 to 3 | 20 to 80 | 20 to 80
CN1CCc2ccc(N3CCc4c(C(=O)NC5CCNCC5(F)F)nn(-c5cccc(Cl)c5)c4C3=O)cc2C1=O (stereo not drawn) [Example 1424, 1-(3-chlorophenyl)-N-(3,3-difluoropiperidin-4-yl)-6-(2-methyl-1-oxo-1,2,3,4-tetrahydroisoquinolin-7-yl)-7-oxo-4,5,6,7-tetrahydro-1H-pyrazolo[3,4-c]pyridine-3-carboxamide] | 0.1 to 0.3 | > 80 | 20 to 80
CN1CCc2ccc(N3CCc4c(C(=O)NC5CNCC5(F)F)nn(-c5cccc(Cl)c5)c4C3=O)cc2C1=O (stereo not drawn) [Example 1425, 1-(3-chlorophenyl)-N-(4,4-difluoropyrrolidin-3-yl)-6-(2-methyl-1-oxo-1,2,3,4-tetrahydroisoquinolin-7-yl)-7-oxo-4,5,6,7-tetrahydro-1H-pyrazolo[3,4-c]pyridine-3-carboxamide] | 0.3 to 1 | > 80 | > 80
CCNC(=O)c1nn(-c2cccc(Cl)c2)c2c1CCN(c1cccc(N3CCOCC3=O)c1)C2=O [Example 1426, 1-(3-chlorophenyl)-N-ethyl-7-oxo-6-(3-(3-oxomorpholino)phenyl)-4,5,6,7-tetrahydro-1H-pyrazolo[3,4-c]pyridine-3-carboxamide] | 10 to 40 | 20 to 80 | 20 to 80
